{
  "source": "patent US20110020252A1",
  "about": "“METHOD OF LONG LASTING HUMAN SKIN TANNING” (priority 2010, published 2011)",
  "key": {"[1]": {"conditions": "cited from earlier work"}, "[2]": {"conditions": "600 mg to 1200, up to 6 months or more, tuberculosis treatment; cited from earlier work"}, "[3]": {"test": "Safety of Rifampin at 600 to 1200 mg daily", "format": "in vivo, human", "conditions": "600 mg to 1200 mg as a daily dose", "excerpt": "Symptoms of overdose may include swelling of face or around eyes, itching over the entire body, orange or red discoloration of skin or eyes, nausea, vomiting, drowsiness, and loss of consciousness. If overdose is suspected, contact your local poison control center or emergency room immediately. One needs to take the prescribed amount for tanning to avoid any overdosing.\nIt has one of the best safety records taken for such a long time. It can be safely used for tanning in the doses of 600 to 1200 mg (dose depending on the weight) day orally for 3-5 days or till one obtains the desired tan without any untoward effects."}, "[4]": {"conditions": "human, in vivo"}, "[5]": {"test_system": "human skin", "test": "Skin tanning with oral Rifampin plus sun/UVR exposure (patient, volunteers, tanning booth users)"}, "[6]": {"test_system": "hepatic enzyme", "conditions": "compared with Rifampin; cited from earlier work"}, "[7]": {"test_system": "skin", "conditions": "cited from earlier work"}},
  "data": [
    {"smiles": "CO[C@H]1/C=C/O[C@@]2(C)Oc3c(C)c(O)c4c(O)c(c(/C=N/N5CCN(C)CC5)c(O)c4c3C2=O)NC(=O)/C(C)=C\\C=C\\[C@H](C)[C@H](O)[C@@H](C)[C@@H](O)[C@@H](C)[C@H](OC(C)=O)[C@@H]1C", "note": "[Rifampin]", "values": [
      {"measurement": "plasma levels, mean", "setting": "[1]; 600 mg dose on an empty stomach", "value": 7, "unit": "µg/mL"},
      {"measurement": "effect of antacids on absorption", "setting": "[1]; antacids", "value": "do not affect absorption"},
      {"measurement": "administered drug excreted unchanged through the urine", "setting": "[1]; in vivo", "value": "about 7%"},
      {"measurement": "excretion into breast milk", "setting": "[1]; in vivo", "value": "excreted into breast milk"},
      {"measurement": "fraction metabolized by the liver microsomal enzymes", "setting": "[1]; in vivo", "value": "Approximately 85%"},
      {"measurement": "time after which almost the entire drug is deacetylated", "setting": "[1]; in vivo", "value": "about 6 hours"},
      {"measurement": "urinary elimination, share of the dose that is excreted", "setting": "[1]; in vivo", "value": "about 30%"},
      {"measurement": "time to peak plasma concentrations", "setting": "[1]; orally administered", "value": "1 to 2", "unit": "h"},
      {"measurement": "peak blood concentration when taken with a meal", "setting": "[1]; taken with a meal", "value": 36, "unit": "%"},
      {"measurement": "dose eliminated within 24 hours", "setting": "[1]; within 24 hours", "value": "Approximately 50%"},
      {"measurement": "adverse effects", "setting": "[2]", "value": "without any serious adverse effect"},
      {"measurement": "overdose effects", "setting": "[3]", "value": "haven't noticed any overdose effects"},
      {"measurement": "time until urine and facial orange coloration disappears", "setting": "[4]", "value": "≤ 24", "unit": "h"},
      {"measurement": "tanning effect by skin type", "setting": "[5]; […]", "value": "more pronounced in brown skinned"},
      {"measurement": "dandruff production", "setting": "[5]; experimental test individuals using this method of tanning", "value": "less dandruff production"},
      {"measurement": "skin staining of tuberculosis patients", "setting": "[5]; use for many months with exposure to Sun light", "value": "became much darkly stained"},
      {"measurement": "tanning result", "setting": "[5]; volunteers and tanning booth users, minimum UVR exposure", "value": "good natural looking long lasting tanning"}
    ]},
    {"smiles": "CO[C@H]1/C=C/O[C@@]2(C)Oc3c(C)c(O)c4c(c3C2=O)C2=NC3(CCN(CC(C)C)CC3)NC2=C(NC(=O)/C(C)=C\\C=C\\[C@H](C)[C@H](O)[C@@H](C)[C@@H](O)[C@@H](C)[C@H](OC(C)=O)[C@@H]1C)C4=O", "note": "[Rifabutin]", "values": [
      {"measurement": "hepatic enzyme induction", "setting": "[6]", "value": "less hepatic enzyme induction"}
    ]},
    {"smiles": "O=C[C@H](O)[C@H](O)[C@H](O)CO", "note": "[D-ribose]", "values": [
      {"measurement": "effect on wound surface", "setting": "[7]; applied directly to a wound", "value": "caused the surface to become brown"},
      {"measurement": "effect on tanning", "setting": "[7]; in water applied to the skin", "value": "showed no such effect on tanning"}
    ]}
  ]
}
